Measured values as given in patent publication US20240059680A1, “N-(2,3-DIHYDRO-1,4-BENZOXAZIN-4-YL)-3-ISOPROPYL-7-(2,3,5-TRIFLUOROPHENYL)BENZO-THIOPHENE-2-CARBOXAMIDE DERIVATIVES AND SIMILAR COMPOUNDS FOR THE TREATMENT OF HEARTWORM INFECTIONS” (ELANCO TIERGESUNDHEIT AG, priority 2020, published 2024).
≈ marks a conversion by molar mass, not a printed value.

Key:
[1] = target: D. immitis Slo-1 (Dirofilaria immitis, UniProt I0DFK5); assay: In Vitro Assay 2: D. immitis Slo-1, membrane potential measurement in recombinant CHO cell line; assay type: cell-based
[2] = test system: Dirofilaria immitis microfilariae; assay: In Vitro Assay 3: Dirofilaria immitis microfilariae (DIROIM L1) motility; assay type: cell-based; conditions: 72 h
[3] = test system: Dirofilaria immitis third-stage larvae; assay: In Vitro Assay 4: Dirofilaria immitis (DIROIM L4) larval motility; assay type: cell-based; conditions: 72 h
[4] = test system: Adult Nippostrongylus brasiliensis; assay: In Vitro Assay 5: Nippostrongylus brasiliensis (NIPOBR), acetylcholine esterase readout; assay type: cell-based; conditions: acetylcholine esterase activity in medium vs negative control, adult worms, read-out: EC50
Description: In Vitro Assay 5: Nippostrongylus Brasiliensis (NIPOBR)
Adult Nippostrongylus brasiliensis were washed with saline buffer containing 100 U/ml penicillin, 0.1 mg/ml streptomycin and 2.5 μg/ml amphotericin B. Test compounds were dissolved in DMSO and worms were incubated in medium in a final concentration of 10 μg/ml (10 ppm), 1 μg/ml (1 ppm) and 0.1 μg/ml (0.1 ppm) respectively. An aliquot of the medium was used to determine the acetylcholine esterase activity in comparison to a negative control. The principle of measuring acetylcholine esterase as readout for anthelmintic activity was described in Rapson et al (1986) and Rapson et al (1987).
Based on the evaluation of a wide concentration range, concentration-response curves as well as EC50-values were calculated.

[5] = target: C. elegans Slo-1a (Caenorhabditis elegans, UniProt Q95V25)
C. elegans Slo-1a, sequence (Q95V25 whole entry): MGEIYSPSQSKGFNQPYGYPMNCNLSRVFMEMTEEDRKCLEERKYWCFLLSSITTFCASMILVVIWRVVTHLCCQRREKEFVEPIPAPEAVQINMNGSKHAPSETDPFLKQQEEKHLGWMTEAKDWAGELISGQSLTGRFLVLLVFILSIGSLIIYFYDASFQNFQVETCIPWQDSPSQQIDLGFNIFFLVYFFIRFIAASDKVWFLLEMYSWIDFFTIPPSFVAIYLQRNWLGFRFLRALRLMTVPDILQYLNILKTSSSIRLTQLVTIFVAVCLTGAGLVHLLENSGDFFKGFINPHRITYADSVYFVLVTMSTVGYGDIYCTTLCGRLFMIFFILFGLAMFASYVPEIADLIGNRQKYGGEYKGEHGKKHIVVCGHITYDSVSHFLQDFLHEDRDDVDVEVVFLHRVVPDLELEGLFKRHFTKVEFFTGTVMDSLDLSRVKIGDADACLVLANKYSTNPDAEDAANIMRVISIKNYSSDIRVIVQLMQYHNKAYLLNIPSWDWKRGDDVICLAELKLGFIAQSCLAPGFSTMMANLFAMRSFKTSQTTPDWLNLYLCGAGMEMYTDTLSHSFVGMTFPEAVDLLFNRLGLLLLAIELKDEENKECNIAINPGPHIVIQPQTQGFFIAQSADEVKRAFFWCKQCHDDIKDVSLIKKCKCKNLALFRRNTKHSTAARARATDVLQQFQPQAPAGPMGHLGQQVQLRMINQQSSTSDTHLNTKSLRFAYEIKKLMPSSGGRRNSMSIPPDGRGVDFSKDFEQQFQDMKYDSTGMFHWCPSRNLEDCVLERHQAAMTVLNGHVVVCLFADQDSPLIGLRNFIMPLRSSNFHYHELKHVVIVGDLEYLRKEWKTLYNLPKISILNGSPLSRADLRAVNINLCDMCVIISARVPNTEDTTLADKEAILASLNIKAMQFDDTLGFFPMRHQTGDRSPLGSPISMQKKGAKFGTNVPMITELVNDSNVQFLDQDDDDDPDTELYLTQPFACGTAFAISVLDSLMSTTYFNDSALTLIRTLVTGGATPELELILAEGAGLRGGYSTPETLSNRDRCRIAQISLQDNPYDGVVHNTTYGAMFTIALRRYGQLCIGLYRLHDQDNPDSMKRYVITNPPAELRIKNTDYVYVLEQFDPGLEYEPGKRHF
Description: For transfection with plasmid DNA to express C. elegans Slo-1a (accession number AAL28102) CHO cells were passaged to 40% confluence before adding the transfection solution to the cell culture. The transfection solution included 300 μL OptiMEM (Life Technologies, Nr.: 31985), 2 μL (=6 μg) of plasmid DNA containing the C. elegans Slo-1a gene and 9 μL FugeneHD (Promega, Nr.: E2311), and was added to the cells prior to incubation for 48 hours at 37° C., 5% CO2. The transfection medium was exchanged for the selection medium which contains additional G418 (2 mg/ml, Invitrogen, Nr.: 10131) and the cells were seeded into 384 well plates (300 cells/well). After a few weeks, the remaining surviving cells were tested with a voltage sensitive dye (Membrane Potential Assay Kit, Molecular Devices Nr.: R8034) for K+ channel expression. Positive cell clones were purified by the limited dilution technique. For this the clone with the highest and most robust signal in the voltage sensitive dye assay was further subcloned (incubated) in 384 well plates (0.7 cells/well) to obtain clonal purity. This generated a final stable CHO cell line expressing the C. elegans Slo-1a.
Cell culture conditions Cells were cultured at 37° C. and 5% CO2 in MEMalpha with Gutamax I (Invitrogen, Nr.: 32571), supplemented with 10% (v/v) heat inactivated fetal bovine serum (Invitrogen, Nr.: 10500), G418 (1 mg/ml, Invitrogen, Nr.: 10131). Cells were detached using Accutase (Sigma, Nr.: A6964).
Membrane Potential Measurements
Laboratory compound testing was performed on 384-well microtiter plates (MTPs, Greiner, Nr.: 781092). 8000 cells/well were plated onto 384-well MTPs and cultured for 20 to 24 hours at 37° C. and 5% CO2. After removal of the cell culture medium, the cells were washed once with tyrode (150 mM NaCl, 0.3 mM KCl, 2 mM CaCl2, 1 m M MgCl2, 0.8 mM NaH2PO4, 5 mM Glucose, 28 mM Hepes, pH 7.4) and then loaded with the voltage sensitive dye of the Membrane Potential Assay Kit diluted in tyrode for 1 h at room temperature. After starting the measurement of fluorescence using a FLIPR Tetra (Molecular Devices, Exc. 510-545 nm, Emm. 565-625 nm), test compounds were added followed by the addition of KCl tyrode (final assay concentration: 70 mM KCl, 2 mM CaCl2, 1 mM MgCl2, 0.8 mM NaH2PO4, 5 mM Glucose, 28 mM Hepes, pH 7.4, including the voltage sensitive dye). The measurement was completed after 7 minutes.
EC50 values were calculated using a four-parameter plotting by the Scilligence ELN/Regmol Software Tool, Bioassay.

D. immitis Slo-1, sequence (I0DFK5 1-1119): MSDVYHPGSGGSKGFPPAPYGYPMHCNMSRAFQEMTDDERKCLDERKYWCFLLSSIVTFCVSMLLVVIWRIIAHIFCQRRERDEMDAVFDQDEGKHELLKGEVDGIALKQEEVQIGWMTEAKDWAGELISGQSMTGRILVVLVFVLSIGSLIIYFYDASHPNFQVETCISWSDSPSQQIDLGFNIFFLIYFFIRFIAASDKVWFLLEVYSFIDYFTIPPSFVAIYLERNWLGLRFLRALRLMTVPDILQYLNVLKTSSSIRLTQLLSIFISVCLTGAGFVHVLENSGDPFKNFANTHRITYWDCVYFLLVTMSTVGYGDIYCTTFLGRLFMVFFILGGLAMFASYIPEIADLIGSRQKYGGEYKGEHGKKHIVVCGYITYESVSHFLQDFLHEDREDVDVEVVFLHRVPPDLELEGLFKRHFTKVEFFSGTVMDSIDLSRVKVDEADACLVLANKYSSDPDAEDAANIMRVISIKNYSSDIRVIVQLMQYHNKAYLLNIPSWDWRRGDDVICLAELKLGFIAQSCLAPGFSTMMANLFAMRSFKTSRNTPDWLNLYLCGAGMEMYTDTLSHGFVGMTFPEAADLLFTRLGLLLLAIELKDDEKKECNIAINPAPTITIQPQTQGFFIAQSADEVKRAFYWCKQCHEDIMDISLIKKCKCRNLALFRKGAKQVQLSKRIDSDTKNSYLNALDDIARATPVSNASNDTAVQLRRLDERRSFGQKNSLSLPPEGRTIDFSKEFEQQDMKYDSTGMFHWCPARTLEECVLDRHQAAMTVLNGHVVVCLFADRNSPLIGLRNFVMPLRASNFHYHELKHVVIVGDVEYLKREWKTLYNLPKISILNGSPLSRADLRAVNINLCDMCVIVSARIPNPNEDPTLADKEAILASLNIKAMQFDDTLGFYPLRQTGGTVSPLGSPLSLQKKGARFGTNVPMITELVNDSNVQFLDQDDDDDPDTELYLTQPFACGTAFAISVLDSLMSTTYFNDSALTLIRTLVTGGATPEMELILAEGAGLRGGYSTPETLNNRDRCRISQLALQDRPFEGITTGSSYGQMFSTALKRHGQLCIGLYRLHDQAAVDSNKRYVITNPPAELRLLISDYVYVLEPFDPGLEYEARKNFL

Work on `CC(C)c1c(C(=O)NN2CCOc3ccccc32)cnc2c1cnn2-c1cc(F)cc(F)c1F` [Example 10.1, N-(2,3-Dihydro-4H-benzo[b][1,4]oxazin-4-yl)-4-isopropyl-1-(2,3,5-trifluorophenyl)-1H-pyrazolo[3,4-b]pyridine-5-carboxamide] yielded an EC50 [1] greater than 1000 nM, an EC50 [2] of 0.1 to 1 µg/mL (≈ 0.214 to 2.14 µM) and an EC50 [3] of less than 0.1 µg/mL. It also gave an EC50 [4] greater than 1 µg/mL and an EC50 [5] of 100 to 1000 nM.
Work on `Cc1nn(-c2cc(F)cc(F)c2F)c2ncc(C(=O)NN3CCOc4ccccc43)c(C(C)C)c12` [Example 10.2, N-(2,3-Dihydro-4H-benzo[b][1,4]oxazin-4-yl)-4-isopropyl-3-methyl-1-(2,3,5-trifluorophenyl)-1H-pyrazolo[3,4-b]pyridine-5-carboxamide] yielded an EC50 [1] greater than 1000 nM, an EC50 [2] of 0.1 to 1 µg/mL (≈ 0.208 to 2.08 µM) and an EC50 [3] greater than 1 µg/mL. It also gave an EC50 [4] greater than 1 µg/mL and an EC50 [5] greater than 1000 nM.
`CC(C)c1c(C(=O)NN2CCOc3ccccc32)cnc2c(-c3cc(F)cc(F)c3F)ncn12` [Example 11.1, N-(2,3-Dihydro-4H-benzo[b][1,4]oxazin-4-yl)-4-isopropyl-8-(2,3,5-trifluoro-phenyl)-imidazo[1,5-a]pyrimidine-3-carboxamide] was tested, and the EC50 [1] was greater than 1000 nM, the EC50 [2] was 0.1 to 1 µg/mL (≈ 0.214 to 2.14 µM) and the EC50 [3] was less than 0.1 µg/mL. For the same compound, the EC50 [4] was greater than 1 µg/mL and the EC50 [5] was 100 to 1000 nM.
`CC(C)n1c(C(=O)NN2CCOc3ccccc32)nc2c(-c3cc(F)cc(F)c3F)nccc21` [Example 12.1, N-(2,3-Dihydro-4H-benzo[b][1,4]oxazin-4-yl)-1-isopropyl-4-(2,3,5-trifluorophenyl)-1H-imidazo[4,5-c]pyridine-2-carboxamide] showed an EC50 [1] greater than 1000 nM, an EC50 [2] of 0.1 to 1 µg/mL (≈ 0.214 to 2.14 µM) and an EC50 [3] of less than 0.1 µg/mL. For the same compound, the EC50 [4] was greater than 1 µg/mL and the EC50 [5] was greater than 1000 nM.
In the case of `CC(C)n1c(C(=O)NN2CCOc3ccccc32)nc2c(-c3cc(F)cc(F)c3F)cccc21` [Example 13.1, N-(2,3-Dihydro-4H-benzo[b][1,4]oxazin-4-yl)-1-isopropyl-4-(2,3,5-trifluorophenyl)-1H-benzo[d]imidazole-2-carboxamide], the EC50 [1] is reported as greater than 1000 nM, the EC50 [2] is reported as 0.1 to 1 µg/mL (≈ 0.214 to 2.14 µM) and the EC50 [3] is reported as 0.1 to 1 µg/mL (≈ 0.214 to 2.14 µM). It also gave an EC50 [4] greater than 1 µg/mL and an EC50 [5] of 100 to 1000 nM.
Work on `CC(C)c1c(C(=O)NN2CCOc3ccccc32)cnc2c1nnn2-c1cc(F)cc(F)c1F` [Example 14.1, N-(2,3-Dihydro-4H-benzo[b][1,4]oxazin-4-yl)-7-isopropyl-3-(2,3,5-trifluorophenyl)-3H-[1,2,3]triazolo[4,5-b]pyridine-6-carboxamide] yielded an EC50 [1] greater than 1000 nM, an EC50 [2] of less than 0.1 µg/mL and an EC50 [3] greater than 1 µg/mL. It also gave an EC50 [4] greater than 1 µg/mL and an EC50 [5] greater than 1000 nM.
For `CC(C)c1c(C(=O)NN2CCOc3ccccc32)ccn2c(-c3c(F)ccc(F)c3F)nnc12` [Example 15.1, N-(2,3-Dihydro-1,4-benzoxazin-4-yl)-8-isopropyl-3-(2,3,6-trifluorophenyl)-[1,2,4] triazolo [4,3-a]pyridine-7-carboxamide], the EC50 [1] was greater than 1000 nM, the EC50 [2] was 0.1 to 1 µg/mL (≈ 0.214 to 2.14 µM) and the EC50 [3] was greater than 1 µg/mL. It also gave an EC50 [4] greater than 1 µg/mL and an EC50 [5] greater than 1000 nM.
Compound `CC(C)c1c(C(=O)NN2CCOc3ccccc32)ccc2c1nnn2-c1cc(F)cc(F)c1F` [Example 16.1, N-(2,3-Dihydro-4H-benzo[b][1,4]oxazin-4-yl)-4-isopropyl-1-(2,3,5-trifluorophenyl)-1H-benzo[d][1,2,3]triazole-5-carboxamide] has an EC50 [1] greater than 1000 nM, an EC50 [2] greater than 1 µg/mL and an EC50 [3] greater than 1 µg/mL. For the same compound, the EC50 [4] was greater than 1 µg/mL and the EC50 [5] was greater than 1000 nM.
Work on `CC(C)c1c(C(=O)NN2CCOc3ccccc32)[nH]c2c(-c3cc(F)cc(F)c3F)cccc12` [Example 17.1, N-(2,3-dihydro-1,4-benzoxazin-4-yl)-3-(1-methylethyl)-7-[2,3,5-tris(fluoranyl)-phenyl]-1H-indole-2-carboxamide] yielded an EC50 [1] greater than 1000 nM, an EC50 [2] of less than 0.1 µg/mL and an EC50 [3] greater than 1 µg/mL. It also gave an EC50 [4] greater than 1 µg/mL and an EC50 [5] greater than 1000 nM.
